Paper PMC11491487 (Nature Communications, 2024)
Several values for one entry are separate records, joined by “and”; a condition that tells them apart may be missing. Equal values may be shown once.

What was measured:
[1] = tested on: Drosophila melanogaster RyR G4915E; assay: Bioassay of gene-edited Drosophila melanogaster (feeding, mortality after 24 h); type: in vivo; conditions: 24 h
[2] = tested on: Drosophila melanogaster RyR M4758I; assay: as above; type: in vivo; conditions: 24 h

Question: For `Cc1cc(C(F)(C(F)(F)F)C(F)(F)F)ccc1NC(=O)c1cccc(I)c1C(=O)NC(C)(C)CS(C)(=O)=O` [FLU, flubendiamide], which death rate ([1]; FLU 1.000 uM) is on record?
Answer: Its death rate is 0%.

Question: And the death rate ([1]; FLU 3.333 uM)?
Answer: Its death rate is 0%.

Question: And the death rate ([1]; FLU 10.000 uM)?
Answer: The death rate was 0%.

Question: And the death rate ([1]; FLU 33.333 uM)?
Answer: Its death rate is 0%.

Question: What about the death rate ([1]; FLU 100.000 uM) of the same compound?
Answer: Its death rate is 0%.

Question: What about the death rate ([1]; FLU 333.333 uM) of the same compound?
Answer: The death rate was 0%.

Question: What about the death rate ([2]; FLU 0.033 uM) of the same compound?
Answer: The death rate was 0%.

Question: What about the death rate ([2]; FLU 0.100 uM) of the same compound?
Answer: Its death rate is 0% and 10%.

Question: And the death rate ([2]; FLU 0.333 uM)?
Answer: The death rate was 10%.

Question: And the death rate ([2]; FLU 1.000 uM)?
Answer: The death rate was 10% and 20%.

Question: What about the death rate ([2]; FLU 3.333 uM) of the same compound?
Answer: Its death rate is 20% and 30%.

Question: What about the death rate ([2]; FLU 10.000 uM) of the same compound?
Answer: The death rate was 50%.

Question: What about the death rate ([2]; FLU 33.333 uM) of the same compound?
Answer: The death rate was 60% and 70%.

Question: And the death rate ([2]; FLU 100.000 uM)?
Answer: The death rate was 100%.

Question: And the death rate ([2]; FLU 333.333 uM)?
Answer: Its death rate is 100%.
